Data published in patent publication US20260109715A1, “IMIDAZOPYRIDINE DERIVATIVES WITH BICYCLIC STRUCTURE” (PUBLIC UNIVERSITY CORPORATION YOKOHAMA CITY UNIVERSITY, priority 2022, published 2026).

Tests used:
[1] = target: human SMG1 enzyme (Homo sapiens, UniProt Q96Q15); experiment: Measurement of SMG1 kinase activity (ADP-Glo Kinase Assay); assay type: biochemical; conditions: purified human SMG1 enzyme 5 nM, Upf1 peptide substrate, ATP 4 μM; qAC50 synonymous with IC50; read-out: Test Example 1 ADP-Glo IC50
Chain of human SMG1 enzyme (Q96Q15 whole entry): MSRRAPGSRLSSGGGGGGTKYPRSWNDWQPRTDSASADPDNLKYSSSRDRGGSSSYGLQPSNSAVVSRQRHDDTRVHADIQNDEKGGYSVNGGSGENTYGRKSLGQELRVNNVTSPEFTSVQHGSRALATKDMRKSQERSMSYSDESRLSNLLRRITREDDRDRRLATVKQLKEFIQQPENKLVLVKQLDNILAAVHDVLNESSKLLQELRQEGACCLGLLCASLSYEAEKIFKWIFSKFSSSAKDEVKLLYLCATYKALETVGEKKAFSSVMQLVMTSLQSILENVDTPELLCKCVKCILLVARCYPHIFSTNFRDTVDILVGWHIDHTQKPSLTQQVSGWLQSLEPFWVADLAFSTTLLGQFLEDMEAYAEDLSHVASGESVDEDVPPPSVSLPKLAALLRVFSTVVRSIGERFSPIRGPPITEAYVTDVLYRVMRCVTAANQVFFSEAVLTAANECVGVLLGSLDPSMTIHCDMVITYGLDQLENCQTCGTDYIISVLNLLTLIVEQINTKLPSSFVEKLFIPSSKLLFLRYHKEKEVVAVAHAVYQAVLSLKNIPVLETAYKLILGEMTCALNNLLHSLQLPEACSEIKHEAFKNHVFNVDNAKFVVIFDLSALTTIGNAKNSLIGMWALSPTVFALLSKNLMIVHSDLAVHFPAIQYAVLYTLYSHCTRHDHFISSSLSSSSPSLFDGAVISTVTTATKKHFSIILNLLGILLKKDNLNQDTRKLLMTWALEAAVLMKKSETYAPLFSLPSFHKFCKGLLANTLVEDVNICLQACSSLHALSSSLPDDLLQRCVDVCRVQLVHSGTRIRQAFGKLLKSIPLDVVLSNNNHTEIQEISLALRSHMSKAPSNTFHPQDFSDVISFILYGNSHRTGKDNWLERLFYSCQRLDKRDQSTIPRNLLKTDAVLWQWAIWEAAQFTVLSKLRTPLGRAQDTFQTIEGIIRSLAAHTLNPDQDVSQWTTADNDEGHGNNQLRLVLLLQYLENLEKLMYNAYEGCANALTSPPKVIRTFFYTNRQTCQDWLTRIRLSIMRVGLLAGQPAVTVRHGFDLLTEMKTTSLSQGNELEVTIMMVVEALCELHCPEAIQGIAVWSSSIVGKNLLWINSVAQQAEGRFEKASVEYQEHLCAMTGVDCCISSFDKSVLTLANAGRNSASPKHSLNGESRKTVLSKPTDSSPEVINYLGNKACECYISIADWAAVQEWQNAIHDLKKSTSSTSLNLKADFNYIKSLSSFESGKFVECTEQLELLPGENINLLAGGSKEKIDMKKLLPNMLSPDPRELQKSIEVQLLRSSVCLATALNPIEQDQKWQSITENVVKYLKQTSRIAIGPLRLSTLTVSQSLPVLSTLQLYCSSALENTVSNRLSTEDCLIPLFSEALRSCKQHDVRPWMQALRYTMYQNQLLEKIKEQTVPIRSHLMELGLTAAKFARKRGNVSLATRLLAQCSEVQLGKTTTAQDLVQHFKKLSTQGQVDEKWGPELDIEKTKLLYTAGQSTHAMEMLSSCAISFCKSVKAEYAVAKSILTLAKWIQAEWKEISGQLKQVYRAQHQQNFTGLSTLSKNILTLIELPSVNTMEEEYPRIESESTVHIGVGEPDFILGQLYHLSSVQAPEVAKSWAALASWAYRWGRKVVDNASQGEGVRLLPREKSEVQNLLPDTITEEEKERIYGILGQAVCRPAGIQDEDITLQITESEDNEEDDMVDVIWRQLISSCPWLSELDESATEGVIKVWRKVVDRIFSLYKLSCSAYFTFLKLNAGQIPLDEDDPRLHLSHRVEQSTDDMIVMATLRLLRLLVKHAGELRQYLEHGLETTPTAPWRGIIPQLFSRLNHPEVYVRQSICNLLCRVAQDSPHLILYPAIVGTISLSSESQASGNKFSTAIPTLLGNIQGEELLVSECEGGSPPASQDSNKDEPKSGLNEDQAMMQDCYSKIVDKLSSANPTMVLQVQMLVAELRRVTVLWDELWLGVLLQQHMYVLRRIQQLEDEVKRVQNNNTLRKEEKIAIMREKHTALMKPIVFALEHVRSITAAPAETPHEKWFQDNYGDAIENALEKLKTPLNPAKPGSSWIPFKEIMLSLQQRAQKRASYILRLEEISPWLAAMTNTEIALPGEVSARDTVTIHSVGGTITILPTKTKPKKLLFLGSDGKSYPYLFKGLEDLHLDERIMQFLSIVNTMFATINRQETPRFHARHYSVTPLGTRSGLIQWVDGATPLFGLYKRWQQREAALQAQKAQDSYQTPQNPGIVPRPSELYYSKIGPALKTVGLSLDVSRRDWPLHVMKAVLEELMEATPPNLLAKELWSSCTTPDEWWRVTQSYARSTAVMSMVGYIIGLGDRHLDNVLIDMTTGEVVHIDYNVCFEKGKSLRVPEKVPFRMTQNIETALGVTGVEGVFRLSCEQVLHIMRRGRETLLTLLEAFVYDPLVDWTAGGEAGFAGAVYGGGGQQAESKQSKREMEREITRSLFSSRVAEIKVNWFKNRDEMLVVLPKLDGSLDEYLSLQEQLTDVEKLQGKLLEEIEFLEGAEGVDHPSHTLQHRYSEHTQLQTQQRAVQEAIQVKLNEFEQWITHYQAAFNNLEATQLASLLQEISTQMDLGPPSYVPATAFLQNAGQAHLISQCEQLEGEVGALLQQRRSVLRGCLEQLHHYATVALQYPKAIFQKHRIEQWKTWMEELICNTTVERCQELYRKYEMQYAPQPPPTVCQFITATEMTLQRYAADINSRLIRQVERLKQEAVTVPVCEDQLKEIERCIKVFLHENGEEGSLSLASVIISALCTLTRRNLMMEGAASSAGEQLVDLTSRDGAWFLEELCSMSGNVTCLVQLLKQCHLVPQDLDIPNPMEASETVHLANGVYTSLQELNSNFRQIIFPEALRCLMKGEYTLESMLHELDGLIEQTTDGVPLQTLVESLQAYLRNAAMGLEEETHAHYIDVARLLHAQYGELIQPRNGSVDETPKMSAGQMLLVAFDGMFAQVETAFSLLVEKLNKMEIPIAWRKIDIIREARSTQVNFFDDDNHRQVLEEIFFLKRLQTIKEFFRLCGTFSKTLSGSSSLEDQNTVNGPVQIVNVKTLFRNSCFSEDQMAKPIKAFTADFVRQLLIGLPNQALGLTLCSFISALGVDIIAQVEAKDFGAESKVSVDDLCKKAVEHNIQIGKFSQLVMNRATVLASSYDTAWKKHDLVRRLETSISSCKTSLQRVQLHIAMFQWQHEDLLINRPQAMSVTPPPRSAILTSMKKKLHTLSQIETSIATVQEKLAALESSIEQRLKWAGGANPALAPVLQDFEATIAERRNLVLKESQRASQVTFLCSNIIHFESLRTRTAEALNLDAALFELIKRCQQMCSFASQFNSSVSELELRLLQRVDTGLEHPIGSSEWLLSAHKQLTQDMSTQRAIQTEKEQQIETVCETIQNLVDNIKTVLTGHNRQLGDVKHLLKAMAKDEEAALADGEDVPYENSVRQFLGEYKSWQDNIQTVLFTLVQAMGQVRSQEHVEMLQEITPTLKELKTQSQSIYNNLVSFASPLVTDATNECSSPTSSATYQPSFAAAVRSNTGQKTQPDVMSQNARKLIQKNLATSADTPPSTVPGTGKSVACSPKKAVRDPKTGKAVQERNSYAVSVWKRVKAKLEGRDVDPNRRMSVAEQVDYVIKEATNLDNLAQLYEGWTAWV
In short: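 ADP-Glo luminescence readout of ADP made by 5 nM human SMG1 acting on 8 μg/mL Upf1 peptide with 4 μM ATP for 60 min at room temperature, after a 15 min enzyme–compound preincubation (1% DMSO; pH 7.5 HEPES, MnCl2). Activity scaled between DMSO and no-enzyme wells; IC50 by four-parameter logistic regression.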

[2] = tested on: Snhg1 transcript (NMD target gene) in EMT6 murine breast cancer cell line; experiment: Measurement of NMD inhibitory activity in cells (increase in Snhg1 transcript, real-time PCR); design: species or system mouse; conditions: Mus musculus, 6 hours treatment, concentration giving 1/2 of maximum Snhg1 fold change of positive control, read-out: Test Example 2 Cell-based Snhg1 EC50
In short: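 EMT6 cells treated with serially diluted compound (2% DMSO final) for 6 h; Snhg1 transcript quantified by real-time PCR (ΔΔCT, Tbp endogenous control, untreated wells set to 1). EC50 taken as concentration giving half the maximum fold change of a known NMD inhibitor positive control.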

[3] = tested on: Snhg1 transcript in tumor tissues of mice subcutaneously implanted with EMT6 murine breast cancer cell line; experiment: Evaluation of NMD inhibitory activity in vivo (Snhg1 transcript in EMT6 tumor tissue after oral administration); conditions: 6 hours after administration, BALB/c mice
Method: The NMD inhibitory activity of a compound of the present invention or a pharmaceutically acceptable salt thereof in vivo can be measured, for example, by the method described below. Using mice subcutaneously implanted with EMT6 murine breast cancer cell line, tumor tissues 6 hours after oral administration of a test substance are excised, and the increase in Snhg1 transcript is quantified as an indicator of NMD inhibition in the tumor, in the same manner as in the in vitro method.
In this test, NMD inhibitory activity in tumor tissues was evaluated when a test substance was orally administered to mice subcutaneously implanted with EMT6 murine breast cancer cell line. As an indicator of NMD inhibitory activity, the increase in the transcript of Snhg1, an NMD target gene, was quantified. First, BALB/c mice were subcutaneously implanted with EMT6 cells (ATCC), and engraftment was confirmed 7 days later. Six hours after administration of the test substance, mice were euthanized, and the collected tumor tissues were cryopreserved. RNA was extracted from the tumor tissues using the illustra RNAspin Mini RNA Isolation kit (GE Healthcare Life Sciences). After synthesizing cDNA using the High-Capacity cDNA Reverse Transcription Kits (Applied Biosystems, 4368813), the cDNA was mixed with PrimeTime Gene Expression Master Mix (Integrated DNA Technologies) and various probes, and gene expression was quantified by QuantStudio 6 Flex (Thermo Fisher Scientific Inc.). For the probe for the Snhg1 gene, which is an NMD target, Mm.PT.58.44039547 (FAM) (Integrated DNA Technologies) was used, and for the probe for the Gapdh gene, which is an endogenous control, Mm99999915_g2 (VIC-PL) (Applied Biosystems) was used. The relative quantification of Snhg1 transcripts in each sample was calculated by the ΔΔCT method using Gapdh as an endogenous control, and the expression level of Snhg1 in each test substance administration group was calculated by setting the expression level of the Vehicle group (0.5% methylcellulose administration group) to 1.

IC50 [1] [nM]	EC50 [2] [nM]	SMILES	Snhg1 fold change ([3]; 100 mg/kg oral)	Snhg1 fold change ([3]; 10 mg/kg oral)	Snhg1 fold change ([3]; 50 mg/kg oral)	Snhg1 fold change ([3]; 25 mg/kg oral)	Snhg1 fold change ([3]; 12.5 mg/kg oral)
1.4	26	COc1cc(C(C)C)ncc1-c1nccc2[nH]c(=O)c(-c3nc4cnc(Cl)cc4[nH]3)cc12 [Example 61, 3-(6-chloro-1H-imidazo[4,5-c]pyridin-2-yl)-5-[4-methoxy-6-(propan-2-yl)pyridin-3-yl]-1,6-naphthyridin-2(1H)-one]	4.3	–	–	–	–
0.49	3.8	CCc1nc(Cl)cc2[nH]c(-c3cc4c(-c5cnc(OC(F)F)cc5OC)nccc4[nH]c3=O)nc12.CS(=O)(=O)O [Example 146, 3-(6-chloro-4-ethyl-1H-imidazo[4,5-c]pyridin-2-yl)-5-[6-(difluoromethoxy)-4-methoxypyridin-3-yl]-1,6-naphthyridin-2(1H)-one methanesulfonate]	–	10	–	–	–
1	8.8	COc1cc(C2CC2)ncc1-c1nccc2[nH]c(=O)c(-c3nc4c(C)nc(Cl)cc4[nH]3)cc12.CS(=O)(=O)O [Example 140, 3-(6-chloro-4-methyl-1H-imidazo[4,5-c]pyridin-2-yl)-5-(6-cyclopropyl-4-methoxypyridin-3-yl)-1,6-naphthyridin-2(1H)-one methanesulfonate]	–	6.3	–	–	–
2.4	77	Cc1ccccc1-c1nccc2[nH]c(=O)c(-c3nc4cnc(Cl)cc4[nH]3)cc12 [Example 32, 3-(6-chloro-1H-imidazo[4,5-c]pyridin-2-y1)-5-(2-methylpheny1)-1,6-naphthyridin-2(1H)-one]	–	–	12	–	–
1.2	10	CCc1nc(Cl)cc2[nH]c(-c3cc4c(-c5c(O)cccc5F)nccc4[nH]c3=O)nc12.CS(=O)(=O)O [Example 137, 3-(6-chloro-4-ethyl-1H-imidazo[4,5-c]pyridin-2-yl)-5-(2-fluoro-6-hydroxyphenyl)-1,6-naphthyridin-2(1H)-one methanesulfonate]	–	–	–	5.1	–
0.99	28	[2H]C([2H])([2H])Oc1ccccc1-c1nccc2[nH]c(=O)c(-c3nc4c(C)nc(Cl)cc4[nH]3)cc12 [Example 26, 3-(6-chloro-4-methyl-1H-imidazo[4,5-c]pyridin-2-yl)-5-{2-[(^2H3)methyloxy]phenyl}-1,6-naphthyridin-2(1H)-one]	–	12	–	–	–
0.96	5.1	CS(=O)(=O)O.Cc1c(-c2nccc3[nH]c(=O)c(-c4nc5c(C6CCOCC6)nc(Cl)cc5[nH]4)cc23)c(C2CC2)nn1C(F)F [Example 153, 3-[6-chloro-4-(tetrahydro-2H-pyran-4-yl)-1H-imidazo[4,5-c]pyridin-2-yl]-5-[3-cyclopropyl-1-(difluoromethyl)-5-methyl-1H-pyrazol-4-yl]-1,6-naphthyridin-2(1H)-one methanesulfonate]	–	6.9	–	–	–
2.2	39	CS(=O)(=O)O.[2H]C([2H])([2H])Oc1cccc(F)c1-c1nccc2[nH]c(=O)c(-c3nc4cnc(Cl)cc4[nH]3)cc12 [Example 135, 3-(6-chloro-1H-imidazo[4,5-c]pyridin-2-yl)-5-{2-fluoro-6-[(2H3)methyloxy]phenyl}-1,6-naphthyridin-2(1H)-one methanesulfonate]	–	–	–	–	10
1.2	11	CCc1nc(Cl)cc2[nH]c(-c3cc4c(-c5cc(F)ccc5OC)nccc4[nH]c3=O)nc12 [Example 36, 3-(6-chloro-4-ethyl-1H-imidazo[4,5-c]pyridin-2-yl)-5-(5-fluoro-2-methoxyphenyl)-1,6-naphthyridin-2(1H)-one]	–	7.5	–	–	–
0.67	3.9	CCc1nc(Cl)cc2[nH]c(-c3cc4c(-c5cnc(C(C)(F)F)cc5OC)nccc4[nH]c3=O)nc12.CS(=O)(=O)O [Example 147, 3-(6-chloro-4-ethyl-1H-imidazo[4,5-c]pyridin-2-yl)-5-[6-(1,1-difluoroethyl)-4-methoxypyridin-3-yl]-1,6-naphthyridin-2(1H)-one methanesulfonate]	–	9.5	–	–	–
2.4	41	O=c1[nH]c2ccncc2cc1-c1nc2c(N3CCOC[C@H]3C(F)F)nc(Cl)cc2[nH]1 [Example 4, 3-{6-chloro-4-[(3S)-3-(difluoromethyl)morpholin-4-yl]-1H-imidazo[4,5-c]pyridin-2-yl}-1,6-naphthyridin-2(1H)-one]	–	–	–	–	–
0.84	15	COc1cc(C(F)(F)F)ncc1-c1nccc2[nH]c(=O)c(-c3nc4c(C)nc(Cl)cc4[nH]3)cc12 [Example 64, 3-(6-chloro-4-methyl-1H-imidazo[4,5-c]pyridin-2-yl)-5-[4-methoxy-6-(trifluoromethyl)pyridin-3-yl]-1,6-naphthyridin-2(1H)-one]	–	–	–	–	–
1.5	74	Cc1nn(CC2CC2)c(C)c1-c1nccc2[nH]c(=O)c(-c3nc4cnc(Cl)cc4[nH]3)cc12 [Example 90, 3-(6-chloro-1H-imidazo[4,5-c]pyridin-2-yl)-5-[1-(cyclopropylmethyl)-3,5-dimethyl-1H-pyrazol-4-yl]-1,6-naphthyridin-2(1H)-one]	–	–	–	–	–
0.97	24	[2H]C([2H])([2H])Oc1ccccc1-c1nccc2[nH]c(=O)c(-c3nc4c(N5CCNC(=O)C5)nc(Cl)cc4[nH]3)cc12 [Example 43, 3-[6-chloro-4-(3-oxopiperazin-1-yl)-1H-imidazo[4,5-c]pyridin-2-yl]-5-{2-[(^2H3)methyloxy]phenyl}-1,6-naphthyridin-2(1H)-one]	–	–	–	–	–
0.79	75	O=c1[nH]c2ccnc(C3=CCCN(S(=O)(=O)C4CC4)C3)c2cc1-c1nc2cnc(Cl)cc2[nH]1 [Example 104, 3-(6-chloro-1H-imidazo[4,5-c]pyridin-2-yl)-5-[1-(cyclopropylsulfonyl)-1,2,5,6-tetrahydropyridin-3-yl]-1,6-naphthyridin-2(1H)-one]	–	–	–	–	–
0.8	11	Cc1nc(Cl)cc2[nH]c(-c3cc4c(-c5c(F)cccc5C#N)nccc4[nH]c3=O)nc12 [Example 45, 2-[3-(6-chloro-4-methyl-1H-imidazo[4,5-c]pyridin-2-yl)-2-oxo-1,2-dihydro-1,6-naphthyridin-5-yl]-3-fluorobenzonitrile]	–	–	–	–	–
1.8	39	O=c1[nH]c2ccncc2cc1-c1nc2c(-c3ccccc3F)nc(Cl)cc2[nH]1 [Example 25, 3-[6-chloro-4-(2-fluorophenyl)-1H-imidazo[4,5-c]pyridin-2-yl]-1,6-naphthyridin-2(1H)-one]	–	–	–	–	–
1.6	8.4	Cc1c2cccc1-c1nccc3[nH]c(=O)c(cc13)-c1nc3c(nc(Cl)cc3[nH]1)NCC(C)(C)NC(=O)CO2 [Example 111, 7-chloro-12,12,31-trimethyl-16-oxa-3,8,10,13,23,27,32-heptaazahexacyclo[20.6.2.1^2,5.1^17,21.0^4,9.0^26,30]dotriacont-1(29),2,4,6,8,17(31),18,20,22(30),23,25-undecaen-14,28-dione]	–	–	–	–	–
1.9	19	[2H]C([2H])([2H])Oc1ccccc1-c1nccc2[nH]c(=O)c(-c3nc4c(C5CC5)nc(Cl)cc4[nH]3)cc12 [Example 39, 3-(6-chloro-4-cyclopropyl-1H-imidazo[4,5-c]pyridin-2-yl)-5-{2-[(^2H3)methyloxy]phenyl}-1,6-naphthyridin-2(1H)-one]	–	–	–	–	–
4.6	161	C[C@@H]1COCCN1c1nc(Cl)cc2[nH]c(-c3cc4cnc(C5=CCCN(C)C5)cc4[nH]c3=O)nc12 [Example 3, 3-{6-chloro-4-[(3R)-3-methylmorpholin-4-yl]-1H-imidazo[4,5-c]pyridin-2-yl}-7-(1-methyl-1,2,5,6-tetrahydropyridin-3-yl)-1,6-naphthyridin-2(1H)-one]	–	–	–	–	–
